{"source": "paper PMC11061149", "about": "“Protein mimetic 2D FAST rescues alpha synuclein aggregation mediated early and post disease Parkinson’s phenotypes” (Nature Communications, 2024)", "key": {"αS fibers (PMCA)": {"biological_target": "T1, αS fibers (PMCA) (Homo sapiens, UniProt P37840)", "T1 construct": "made in house; host or cells: E. coli BL21(DE3)", "test": "Protein misfolding cyclic amplification assay (PMCA), ThT readout", "assay_type": "biochemical", "procedure": "The PMCA assay was performed according to a previously described protocol. Briefly, an αS solution (100 µM) was prepared in PBS and 60 µL of the solution was placed in a 200 µL Polymerase Chain Reaction (PCR) tube and the mixture was subjected to five 24 h cycles of 1 min shaking (1200 rpm) and 29 min incubation at 37 °C. Every 24 h, 1 µL of αS solution was passaged to seed 60 µL of fresh soluble monomeric αS solution. The seeding cycle was repeated for five days, after which the ThT signal was measured for all five passages. For the preparation of PMCA samples of αS in the presence of NS132, a molar ratio of 1:1 (αS:NS132) was maintained. All experiments were performed in triplicate. The reported ThT intensity values are the average of three separate experiments with the error bars representing the standard deviations."}, "[1]": {"system": "NL5901 worms (αS-YFP in body wall muscle cells)", "test": "Confocal counting of αS-YFP inclusions in NL5901 worms", "assay_type": "in vivo, C. elegans", "conditions": "for number of inclusions in NL5901, individual trials: 50 µM ligand; for number of inclusions: 50 μM ligand", "procedure": "In NL5901 strain, αS-YFP is expressed in the muscle cells of worms. The aggregates of αS-YFP are visible from day 4 and the maximum number of αS-YFP aggregates are visible round day 8 and day 9. The standard worm conditions were used for the culturing of various worm strains. […] The cultures of OP50 were prepared by incubating 50 mL of LB medium with OP50 18 h at 37 °C and the final OD value was adjusted to 0.5 at 600 nm. The NGM plates were prepared by treating them with 350 µL OP50 and leaving the plates at 20 °C for 3 days. […] The NGM plates (with NGM media) were used for the treatment of different worm strains with ligands. […] The NGM plates treated with ligands were prepared and used within 24 h. We used these plates to treat various disease strains for different assays. This experiment was performed based on previously described protocols with slight modifications[24],[65],[88]. […] On day two, the worms were divided into two batches. […] On day four, the ligand (10–50 µM, stock conc. = 10 mM in DMSO, DMSO from 0.1–0.5%, v/v) was added again to PLATE 3. […] For each condition, six biological replicates were performed and at least 10 technical replicates were used for each biological replicate. […] (n = 6 independent experiments and each n consisted of a minimum of ten technical replicates)."}, "UA196 worms": {"system": "UA196 worms", "test": "Motility assay of UA196 worms", "assay_type": "in vivo, C. elegans", "procedure": "Briefly, all worm strains were bleached at the same time and the eggs were incubated on PLATE 1. On day two, the worms were divided into two batches. […] The liquid media for PLATE 4 A/B was prepared with 67.28% (v/v) of M9 buffer, 75 μM FUDR, 0.1% of 1 M magnesium sulfate (v/v), 0.1% of 1 M calcium chloride (v/v), 2.5% of 1 M potassium phosphate solution (pH 6, v/v), and 30% (v/v) of OP50 (0.5 OD600nm). […] To test the effect of each ligand on disease worm strains (NL5901 or UA196), there were four conditions were used in PLATE 4 A/B: […] The assay was started on day four using the WMicroTracker ARENA plate reader (Phylumtech, Santa Fe, Argentina) at 20 °C for 1 h per day over a 14-day period at intervals of 24 h. The WMicroTracker ARENA plate reader uses a large array of infrared light microbeams in each well of the plate to detect the interference caused by the movement of the worms. The output by the ARENA plate reader is an average of the overall movement of all worms present in each well, which is denoted as the motility of the worms in each well. […] After collecting the data each day, the PLATE 4 A/B was again placed on the shaker (100 rpm) at 20 °C in the incubator. The PLATE 4 A/B was on the on the shaker (100 rpm) at 20 °C in the incubator the whole duration of the experiment except only when the reading was collected on the WMicroTracker ARENA plate reader for 1 h."}}, "note": "Values joined by “and” are separate entries in the source; they are usually repeats but may differ in a detail not shown here. Equal values may be shown once."}
{"smiles": "Cc1ccc(NC(=O)c2ccc(NC(=O)c3ccc([N+](=O)[O-])c(NCCc4c[nH]c5ccccc45)n3)c(NCC3CCCCC3)n2)c(OCC(=O)O)n1", "note": "[NS132]", "values": [{"measurement": "ThT intensity of PMCA sample, individual trials", "setting": "αS fibers (PMCA); Cycle 1, αS:NS132 1:1, before PK treatment", "value": "58 and 56 and 50"}, {"measurement": "ThT intensity of PMCA sample, individual trials", "setting": "αS fibers (PMCA); Cycle 2, αS:NS132 1:1", "value": "63 and 49 and 51"}, {"measurement": "ThT intensity of PMCA sample, individual trials", "setting": "αS fibers (PMCA); Cycle 3, αS:NS132 1:1", "value": "57 and 62 and 53"}, {"measurement": "ThT intensity of PMCA sample, individual trials", "setting": "αS fibers (PMCA); Cycle 4, αS:NS132 1:1", "value": "60 and 48 and 64"}, {"measurement": "ThT intensity of PMCA sample, individual trials", "setting": "αS fibers (PMCA); Cycle 5, αS:NS132 1:1", "value": "86 and 68 and 66"}, {"measurement": "change in ThT intensity of PMCA samples, in words", "setting": "αS fibers (PMCA); equimolar ratio, up to cycle five", "value": "did not observe any significant change"}, {"measurement": "number of inclusions in NL5901, individual trials", "setting": "[1]; Day 8", "value": "3 and 2 and 6 and 5 and 9 and 4 and 7 and 8"}, {"measurement": "number of inclusions in NL5901, individual trials", "setting": "[1]; Day 9", "value": "5 and 6 and 7 and 8 and 11 and 10 and 3 and 9 and 4"}, {"measurement": "number of inclusions", "setting": "[1]; day eight", "value": "~ 5 inclusions/worm"}, {"measurement": "number of inclusions", "setting": "[1]; day nine", "value": "~ 6.6 inclusions/worm"}, {"measurement": "motility of UA196 worms, in words", "setting": "UA196 worms; 50 µM ligand (day two and day four), during the aging process", "value": "noticeable rescue"}, {"measurement": "Motility (activity counts)", "setting": "UA196 worms; UA196+NS132, Day 4, per trial", "value": "206 and 197 and 180 and 188"}, {"measurement": "Motility (activity counts)", "setting": "UA196 worms; UA196+NS132, Day 5, per trial", "value": "205 and 178 and 179 and 183"}, {"measurement": "Motility (activity counts)", "setting": "UA196 worms; UA196+NS132, Day 6, per trial", "value": "161 and 191 and 157 and 201"}, {"measurement": "Motility (activity counts)", "setting": "UA196 worms; UA196+NS132, Day 7, per trial", "value": "139 and 152 and 174 and 165"}, {"measurement": "Motility (activity counts)", "setting": "UA196 worms; UA196+NS132, Day 8, per trial", "value": "150 and 125 and 135 and 134"}, {"measurement": "Motility (activity counts)", "setting": "UA196 worms; UA196+NS132, Day 9, per trial", "value": "143 and 94 and 105 and 78"}, {"measurement": "Motility (activity counts)", "setting": "UA196 worms; UA196+NS132, Day 10, per trial", "value": "97 and 68 and 112"}, {"measurement": "Motility (activity counts)", "setting": "UA196 worms; UA196+NS132, Day 13, per trial", "value": "24 and 17 and 22 and 19"}, {"measurement": "Motility (activity counts)", "setting": "UA196 worms; UA196+NS132, Day 14, per trial", "value": "19 and 14 and 23"}]}
